Measurements from paper PMC6457931 (Science Advances, 2019).

Columns and labels:
229E S protein = 229E S protein (Human coronavirus 229E, UniProt P15423); test: cell-based; design: species or system HCoV-229E
NL63 S protein = NL63 S protein (Human coronavirus NL63, UniProt Q6Q1S2); test: cell-based; design: species or system HCoV-NL63
[1] = tested on: S proteins of multiple HCoVs; type: cell-based
NL63 = conditions: read-out: IC50, live NL63 infection; LLC-MK2 cells
pseudotyped OC43 = conditions: 48 h
OC43 = conditions: read-out: IC50, live OC43 infection; HCT-8 cells, 100 TCID50, day 5
pseudotyped 229E = conditions: 48 h
pseudotyped NL63 = conditions: 48 h
OC43 S protein = OC43 S protein (Human coronavirus OC43, UniProt P36334); test: cell-based; conditions: Inhibitory activity of peptides, IC50, HCoV-OC43 cell-cell fusion assay
[2] = target: HR1 domain of MERS-CoV S protein (residues 984 to 1062) (MERS-CoV) (UniProt K9N5Q8)
[3] = target: HR1 domain of HCoV-229E S protein (residues 785 to 873) (HCoV-229E) (UniProt P15423)
[4] = target: HR1 domain of SARS-CoV S protein (residues 892 to 970) (SARS-CoV) (UniProt P59594)
[5] = high or low dose, before and 1, 3, 5 days after final treatment, P > 0.05

229E S protein, sequence (P15423 16-1173 limits assumed): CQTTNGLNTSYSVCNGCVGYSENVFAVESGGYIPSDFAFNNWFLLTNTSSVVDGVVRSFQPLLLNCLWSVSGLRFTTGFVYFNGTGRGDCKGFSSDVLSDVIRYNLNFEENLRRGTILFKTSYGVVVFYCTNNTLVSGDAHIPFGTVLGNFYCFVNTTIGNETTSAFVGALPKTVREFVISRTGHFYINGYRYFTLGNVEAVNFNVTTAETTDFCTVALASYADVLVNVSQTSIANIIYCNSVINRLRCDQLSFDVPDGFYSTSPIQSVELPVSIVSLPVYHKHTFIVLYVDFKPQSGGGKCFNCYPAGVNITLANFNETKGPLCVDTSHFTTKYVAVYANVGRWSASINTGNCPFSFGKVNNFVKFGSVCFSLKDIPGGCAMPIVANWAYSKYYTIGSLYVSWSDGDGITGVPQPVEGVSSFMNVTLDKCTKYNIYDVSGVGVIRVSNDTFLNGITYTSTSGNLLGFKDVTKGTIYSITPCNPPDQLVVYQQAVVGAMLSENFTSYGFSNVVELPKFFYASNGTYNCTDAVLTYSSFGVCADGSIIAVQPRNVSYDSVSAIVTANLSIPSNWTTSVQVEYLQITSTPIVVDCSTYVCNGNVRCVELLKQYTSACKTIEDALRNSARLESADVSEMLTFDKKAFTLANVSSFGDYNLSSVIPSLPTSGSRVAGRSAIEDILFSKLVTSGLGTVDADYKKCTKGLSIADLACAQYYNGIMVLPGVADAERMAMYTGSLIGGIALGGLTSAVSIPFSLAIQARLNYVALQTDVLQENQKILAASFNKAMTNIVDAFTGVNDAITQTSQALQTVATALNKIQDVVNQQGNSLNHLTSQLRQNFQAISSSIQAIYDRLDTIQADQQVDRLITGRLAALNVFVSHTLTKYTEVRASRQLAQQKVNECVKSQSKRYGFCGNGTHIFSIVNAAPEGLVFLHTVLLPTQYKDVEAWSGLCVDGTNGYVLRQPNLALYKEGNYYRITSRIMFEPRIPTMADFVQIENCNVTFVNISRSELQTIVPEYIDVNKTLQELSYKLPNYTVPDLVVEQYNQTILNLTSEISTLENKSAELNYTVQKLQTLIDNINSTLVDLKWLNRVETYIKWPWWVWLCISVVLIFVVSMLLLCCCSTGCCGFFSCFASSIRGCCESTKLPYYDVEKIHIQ
NL63 S protein, sequence (Q6Q1S2 19-1338 limits assumed): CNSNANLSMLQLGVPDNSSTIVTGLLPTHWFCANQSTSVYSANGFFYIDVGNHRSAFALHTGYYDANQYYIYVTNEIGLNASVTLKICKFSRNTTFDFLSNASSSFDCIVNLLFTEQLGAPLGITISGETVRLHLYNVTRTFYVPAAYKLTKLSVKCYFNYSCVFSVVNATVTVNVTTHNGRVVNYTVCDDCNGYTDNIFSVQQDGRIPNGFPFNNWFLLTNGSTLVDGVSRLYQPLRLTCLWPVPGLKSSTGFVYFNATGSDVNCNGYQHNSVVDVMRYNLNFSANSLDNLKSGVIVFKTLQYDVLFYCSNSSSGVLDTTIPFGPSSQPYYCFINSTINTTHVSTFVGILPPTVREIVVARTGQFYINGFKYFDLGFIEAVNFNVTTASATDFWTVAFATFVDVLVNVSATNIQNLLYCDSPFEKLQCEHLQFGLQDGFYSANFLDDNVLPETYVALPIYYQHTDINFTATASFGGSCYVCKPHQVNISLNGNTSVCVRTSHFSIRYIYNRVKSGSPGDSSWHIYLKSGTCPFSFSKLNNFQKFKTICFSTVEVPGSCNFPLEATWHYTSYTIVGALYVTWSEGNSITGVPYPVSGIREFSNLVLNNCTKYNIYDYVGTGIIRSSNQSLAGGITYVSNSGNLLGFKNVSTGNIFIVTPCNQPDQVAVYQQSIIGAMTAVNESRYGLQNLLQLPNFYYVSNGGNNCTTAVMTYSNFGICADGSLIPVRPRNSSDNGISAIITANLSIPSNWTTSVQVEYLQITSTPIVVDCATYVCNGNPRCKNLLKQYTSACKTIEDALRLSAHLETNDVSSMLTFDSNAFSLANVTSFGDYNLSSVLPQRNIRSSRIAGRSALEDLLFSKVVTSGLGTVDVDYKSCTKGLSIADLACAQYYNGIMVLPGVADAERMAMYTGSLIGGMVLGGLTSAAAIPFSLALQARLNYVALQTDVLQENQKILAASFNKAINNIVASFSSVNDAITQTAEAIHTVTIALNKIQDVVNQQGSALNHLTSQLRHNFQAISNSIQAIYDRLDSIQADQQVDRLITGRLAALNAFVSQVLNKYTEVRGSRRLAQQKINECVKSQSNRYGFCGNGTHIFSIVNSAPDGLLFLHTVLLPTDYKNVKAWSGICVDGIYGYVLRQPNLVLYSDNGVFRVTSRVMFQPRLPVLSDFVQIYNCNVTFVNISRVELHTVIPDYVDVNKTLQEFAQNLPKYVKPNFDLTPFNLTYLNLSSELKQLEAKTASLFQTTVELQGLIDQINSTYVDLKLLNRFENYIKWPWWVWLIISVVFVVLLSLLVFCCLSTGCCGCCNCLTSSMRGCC
HR1 domain of MERS-CoV S protein (residues 984 to 1062) (MERS-CoV), sequence (K9N5Q8 984-1062): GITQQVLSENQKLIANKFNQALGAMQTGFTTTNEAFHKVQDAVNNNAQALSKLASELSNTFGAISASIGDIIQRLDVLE
OC43 S protein, sequence (P36334 14-1336 limits assumed): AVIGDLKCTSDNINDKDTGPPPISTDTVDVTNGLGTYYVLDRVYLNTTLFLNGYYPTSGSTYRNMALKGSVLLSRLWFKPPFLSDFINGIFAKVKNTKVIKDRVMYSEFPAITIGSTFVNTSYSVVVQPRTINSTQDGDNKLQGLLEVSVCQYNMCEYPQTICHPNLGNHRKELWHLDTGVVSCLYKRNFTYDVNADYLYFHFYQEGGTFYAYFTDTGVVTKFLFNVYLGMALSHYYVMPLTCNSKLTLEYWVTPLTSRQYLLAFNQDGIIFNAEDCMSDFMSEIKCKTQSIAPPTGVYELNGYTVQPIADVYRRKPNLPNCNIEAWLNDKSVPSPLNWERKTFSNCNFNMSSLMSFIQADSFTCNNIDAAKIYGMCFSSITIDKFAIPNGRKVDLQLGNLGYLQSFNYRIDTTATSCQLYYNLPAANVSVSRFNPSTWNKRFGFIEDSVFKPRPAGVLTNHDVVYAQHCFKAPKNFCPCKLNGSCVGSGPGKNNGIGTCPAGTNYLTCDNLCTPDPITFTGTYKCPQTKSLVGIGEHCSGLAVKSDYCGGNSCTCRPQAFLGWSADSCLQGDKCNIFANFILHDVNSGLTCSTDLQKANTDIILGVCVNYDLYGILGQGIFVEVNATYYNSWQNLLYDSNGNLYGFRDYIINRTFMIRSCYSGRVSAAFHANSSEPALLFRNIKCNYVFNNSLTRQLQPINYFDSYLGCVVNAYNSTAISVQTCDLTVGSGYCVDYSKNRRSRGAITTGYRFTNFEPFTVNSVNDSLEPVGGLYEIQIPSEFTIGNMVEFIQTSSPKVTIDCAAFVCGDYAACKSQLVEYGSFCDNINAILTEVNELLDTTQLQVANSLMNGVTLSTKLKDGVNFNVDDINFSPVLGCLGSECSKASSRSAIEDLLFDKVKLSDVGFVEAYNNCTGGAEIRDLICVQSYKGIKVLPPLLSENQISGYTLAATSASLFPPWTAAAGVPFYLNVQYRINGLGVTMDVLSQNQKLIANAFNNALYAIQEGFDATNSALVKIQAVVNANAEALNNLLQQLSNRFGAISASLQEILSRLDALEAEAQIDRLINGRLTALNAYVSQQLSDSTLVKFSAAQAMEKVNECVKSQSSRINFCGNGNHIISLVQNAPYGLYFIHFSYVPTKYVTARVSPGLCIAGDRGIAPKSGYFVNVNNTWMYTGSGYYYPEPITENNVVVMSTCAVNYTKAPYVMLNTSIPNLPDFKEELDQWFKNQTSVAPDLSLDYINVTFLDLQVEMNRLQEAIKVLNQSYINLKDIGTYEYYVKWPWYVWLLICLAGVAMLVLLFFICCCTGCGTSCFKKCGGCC
HR1 domain of HCoV-229E S protein (residues 785 to 873) (HCoV-229E), sequence (P15423 785-873): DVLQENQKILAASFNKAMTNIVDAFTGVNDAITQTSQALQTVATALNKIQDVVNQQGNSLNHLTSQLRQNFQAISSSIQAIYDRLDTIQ

CC[C@H](C)[C@H](NC(=O)[C@H](C)NC(=O)[C@H](CC(=O)O)NC(=O)[C@H](CC(N)=O)NC(=O)[C@@H](NC(=O)CNC(=O)[C@@H](NC(=O)[C@H](Cc1ccccc1)NC(=O)[C@H](C)NC(=O)[C@H](CC(=O)O)NC(=O)[C@@H](NC(=O)[C@@H](NC(=O)[C@H](CC(N)=O)NC(=O)[C@@H](NC(=O)[C@H](CCSC)NC(=O)[C@H](C)NC(=O)[C@H](CCCCN)NC(=O)[C@H](CC(N)=O)NC(=O)[C@H](Cc1ccccc1)NC(=O)[C@H](CO)NC(=O)[C@H](C)NC(=O)[C@H](C)N)[C@@H](C)O)[C@@H](C)CC)C(C)C)[C@@H](C)O)C(C)C)C(=O)N[C@H](C(=O)N[C@@H](CCC(N)=O)C(=O)N[C@H](C(=O)N[C@@H](CO)C(=O)N[C@@H](CCC(N)=O)C(=O)N[C@@H](C)C(=O)N[C@@H](CC(C)C)C(=O)N[C@@H](CCC(N)=O)C(=O)N[C@H](C(=O)N[C@H](C(=O)N[C@@H](C)C(=O)N[C@H](C(=O)N[C@@H](C)C(=O)N[C@@H](CC(C)C)C(=O)N[C@@H](CC(N)=O)C(=O)N[C@@H](CCCCN)C(=O)N[C@H](C(=O)N[C@@H](CCC(N)=O)C(=O)N[C@@H](CC(=O)O)C(=O)N[C@H](C(=O)N[C@H](C(=O)N[C@@H](CC(N)=O)C(=O)N[C@@H](CCC(N)=O)C(=O)N[C@@H](CCC(N)=O)C(=O)NCC(=O)N[C@@H](CC(N)=O)C(=O)N[C@@H](CO)C(=O)N[C@@H](CC(C)C)C(=O)N[C@@H](CC(N)=O)C(=O)N[C@@H](Cc1c[nH]cn1)C(=O)N[C@@H](CC(C)C)C(=O)N[C@H](C(=O)N[C@@H](CO)C(=O)N[C@@H](CCC(N)=O)C(=O)O)[C@@H](C)O)C(C)C)C(C)C)[C@@H](C)CC)[C@@H](C)O)C(C)C)[C@@H](C)O)[C@@H](C)O)[C@@H](C)O [229E-HR1P]
Inhibitory effects on 229E-S-mediated cell-cell fusion (229E S protein): moderate inhibitory effects | Inhibitory effects on NL63-S-mediated cell-cell fusion (NL63 S protein): moderate inhibitory effects

CC[C@H](C)[C@H](NC(=O)[C@H](CC(N)=O)NC(=O)[C@H](CC(=O)O)NC(=O)[C@@H](NC(=O)[C@H](CC(C)C)NC(=O)[C@@H](NC(=O)[C@H](CCC(N)=O)NC(=O)[C@H](CC(C)C)NC(=O)[C@H](CCCCN)NC(=O)[C@H](CCC(N)=O)NC(=O)[C@@H](NC(=O)[C@@H](NC(=O)[C@H](Cc1ccc(O)cc1)NC(=O)[C@H](CC(N)=O)NC(=O)[C@H](CC(C)C)NC(=O)[C@H](CCC(=O)O)NC(=O)[C@H](C)NC(=O)[C@H](CO)NC(=O)[C@H](CCCCN)NC(=O)[C@H](CC(N)=O)NC(=O)[C@H](CCC(=O)O)NC(=O)[C@H](CC(C)C)NC(=O)[C@@H](NC(=O)[C@H](CO)NC(=O)[C@@H](NC(=O)[C@H](CCC(=O)O)NC(=O)[C@H](CO)NC(=O)[C@@H](NC(=O)[C@H](CC(C)C)NC(=O)[C@H](CC(N)=O)NC(=O)[C@H](CC(C)C)NC(=O)[C@@H](NC(=O)[C@@H](NC(=O)[C@H](CCC(N)=O)NC(=O)[C@H](CC(N)=O)NC(=O)[C@H](Cc1ccc(O)cc1)NC(=O)[C@H](CCC(N)=O)NC(=O)[C@H](CCC(=O)O)NC(=O)[C@@H](NC(=O)[C@@H](N)C(C)C)C(C)C)[C@@H](C)O)[C@@H](C)CC)[C@@H](C)O)[C@@H](C)CC)[C@@H](C)O)[C@@H](C)O)C(C)C)[C@@H](C)O)[C@@H](C)CC)C(=O)N[C@@H](CC(N)=O)C(=O)N[C@@H](CO)C(=O)N[C@H](C(=O)N[C@@H](CC(C)C)C(=O)N[C@H](C(=O)N[C@@H](CC(=O)O)C(=O)N[C@@H](CC(C)C)C(=O)N[C@@H](CCCCN)C(=O)N[C@@H](Cc1c[nH]c2ccccc12)C(=O)N[C@@H](CC(C)C)C(=O)O)C(C)C)[C@@H](C)O [229E-HR2P]
IC50 (229E): 560 nM | Inhibitory activity against β-HCoVs (MERS-CoV, SARS-CoV, OC43) S-mediated fusion [1]: no effective inhibitory activity

CC[C@H](C)[C@H](NC(=O)[C@H](C)NC(=O)[C@H](CCC(=O)O)NC(=O)[C@H](CCC(=O)O)NC(=O)[C@H](CC(C)C)NC(=O)[C@H](CCCCN)NC(=O)[C@H](CCCCN)NC(=O)[C@H](CCSC)NC(=O)[C@H](CCC(=O)O)NC(=O)[C@H](Cc1ccc(O)cc1)NC(=O)[C@H](CCC(=O)O)NC(=O)[C@H](CC(C)C)NC(=O)[C@H](CC(=O)O)NC(=O)[C@H](CC(C)C)NC(=O)[C@H](Cc1ccccc1)NC(=O)[C@@H](NC(=O)[C@@H](NC(=O)[C@H](CC(N)=O)NC(=O)[C@@H](NC(=O)[C@H](CCC(N)=O)NC(=O)[C@H](CC(=O)O)NC(=O)[C@H](CC(C)C)NC(=O)[C@@H](N)CO)[C@@H](C)CC)C(C)C)[C@@H](C)O)C(=O)N[C@@H](CCCCN)C(=O)N[C@@H](CCCCN)C(=O)N[C@@H](CC(C)C)C(=O)N[C@@H](CCC(=O)O)C(=O)N[C@@H](CCC(=O)O)C(=O)N[C@@H](CO)C(=O)N[C@@H](Cc1ccc(O)cc1)C(=O)N[C@H](C(=O)N[C@@H](CC(=O)O)C(=O)N[C@@H](CC(C)C)C(=O)N[C@@H](CCCCN)C(=O)N[C@@H](CCC(=O)O)C(=O)N[C@@H](CC(C)C)C(=O)O)[C@@H](C)CC [EK1]
EK1-specific antibodies in sera (ELISA) (2 weeks after intranasal administration): No EK1-specific antibodies were detected | weight gain/loss compared to PBS-treated mice (20 or 100 mg/kg intranasal every day for 1 week, followed 2 weeks): no apparent difference | histopathology of lung, liver, kidney, and spleen sections (hematoxylin and eosin, 4 weeks after administration): no pathological abnormality | alanine aminotransferase (ALT) in sera versus PBS-treated group [5]: no significant difference | creatinine in sera versus PBS-treated group [5]: no significant difference | IC50 (NL63): 480 nM | IC50 (pseudotyped OC43): 1810 nM | IC50 (OC43): 620 nM | IC50 (pseudotyped 229E): 3350 nM | IC50 (229E): 690 nM | IC50 (pseudotyped NL63): 6020 nM

CC[C@H](C)[C@H](NC(=O)[C@H](CC(C)C)NC(=O)CNC(=O)[C@H](CCC(N)=O)NC(=O)[C@H](CC(C)C)NC(=O)[C@H](CCC(=O)O)NC(=O)[C@@H](NC(=O)[C@@H](NC(=O)[C@@H](NC(=O)[C@H](CCC(N)=O)NC(=O)[C@H](Cc1ccccc1)NC(=O)[C@H](CC(C)C)NC(=O)[C@H](CO)NC(=O)[C@H](C)NC(=O)[C@@H](NC(=O)[C@H](CCCCN)NC(=O)[C@H](C)NC(=O)[C@H](CCC(=O)O)NC(=O)[C@H](CC(C)C)NC(=O)[C@H](CCC(N)=O)NC(=O)[C@H](CCCCN)NC(=O)[C@H](CC(C)C)NC(=O)[C@H](CCC(=O)O)NC(=O)[C@H](CO)NC(=O)[C@H](CO)NC(=O)[C@H](CC(C)C)NC(=O)[C@H](CC(N)=O)NC(=O)[C@H](CC(C)C)NC(=O)[C@H](Cc1ccc(O)cc1)NC(=O)[C@@H](NC(=O)[C@H](CC(C)C)NC(=O)[C@H](CC(N)=O)NC(=O)[C@H](Cc1ccccc1)NC(=O)[C@@H]1CCCN1C(=O)[C@@H](NC(=O)[C@H](CC(C)C)NC(=O)[C@@H](N)CC(=O)O)[C@@H](C)O)[C@@H](C)O)[C@@H](C)O)[C@@H](C)O)[C@@H](C)O)C(C)C)C(=O)N[C@@H](CC(=O)O)C(=O)N[C@@H](CCC(N)=O)C(=O)N[C@H](C(=O)N[C@@H](CC(N)=O)C(=O)N[C@@H](CO)C(=O)N[C@H](C(=O)N[C@@H](Cc1ccc(O)cc1)C(=O)N[C@H](C(=O)N[C@@H](CC(=O)O)C(=O)N[C@@H](CC(C)C)C(=O)N[C@@H](CCCCN)C(=O)N[C@@H](CC(C)C)C(=O)N[C@@H](CC(C)C)C(=O)O)C(C)C)[C@@H](C)O)[C@@H](C)CC [NL63-HR2P]
Inhibitory activity against β-HCoVs (MERS-CoV, SARS-CoV, OC43) S-mediated fusion [1]: no effective inhibitory activity

CC[C@H](C)[C@H](NC(=O)[C@H](CC(=O)O)NC(=O)[C@H](CCCCN)NC(=O)[C@H](CC(C)C)NC(=O)[C@H](CC(N)=O)NC(=O)[C@@H](NC(=O)[C@H](Cc1ccc(O)cc1)NC(=O)[C@H](CO)NC(=O)[C@H](CCC(N)=O)NC(=O)[C@H](CC(N)=O)NC(=O)[C@H](CC(C)C)NC(=O)[C@@H](NC(=O)[C@H](CCCCN)NC(=O)[C@@H](NC(=O)[C@H](C)NC(=O)[C@H](CCC(=O)O)NC(=O)[C@H](CCC(N)=O)NC(=O)[C@H](CC(C)C)NC(=O)[C@H](CCCNC(=N)N)NC(=O)[C@H](CC(N)=O)NC(=O)[C@H](CCSC)NC(=O)[C@H](CCC(=O)O)NC(=O)[C@H](CC(=O)O)NC(=O)[C@H](CCC(N)=O)NC(=O)[C@H](CC(C)C)NC(=O)[C@H](CC(=O)O)NC(=O)[C@H](CC(C)C)NC(=O)[C@H](Cc1ccccc1)NC(=O)[C@@H](NC(=O)[C@@H](NC(=O)[C@H](CC(N)=O)NC(=O)[C@@H](NC(=O)[C@H](Cc1ccc(O)cc1)NC(=O)[C@H](CC(=O)O)NC(=O)[C@H](CC(C)C)NC(=O)[C@@H](N)CO)[C@@H](C)CC)C(C)C)[C@@H](C)O)[C@@H](C)CC)C(C)C)[C@@H](C)CC)C(=O)O [OC43-HR2P]
IC50 (229E S protein; Inhibitory activity of peptides, IC50, HCoV-229E cell-cell fusion assay): 840 nM | IC50 (OC43 S protein): 660 nM | IC50 (OC43): 930 nM | IC50 (NL63 S protein; Inhibitory activity of peptides, IC50, HCoV-NL63 cell-cell fusion assay): 940 nM

OC43-HR2P (peptide)
IC50 of inhibition of MERS-CoV S-mediated cell-cell fusion [2]: 390 nM | IC50 of inhibition of 229E S-mediated cell-cell fusion [3]: 840 nM | IC50 of inhibition of SARS-CoV S-mediated cell-cell fusion [4]: 540 nM
